Test results as given in BigSolDB 2.1.

C1N2CN3CN1CN(C2)C3
Conditions	solubility (mole fraction)
in acetic acid, 304.52 K	0.245
in acetic acid, 310.83 K	0.245
in acetic acid, 317.35 K	0.246
in acetic acid, 321.91 K	0.249
in acetic acid, 327.65 K	0.25
in acetic acid, 332.65 K	0.251
in acetic acid, 337.15 K	0.256
in ethanol, 288.19 K	0.0085
in ethanol, 293.49 K	0.0096
in ethanol, 298.43 K	0.0107
in ethanol, 303.4 K	0.012
in ethanol, 312.91 K	0.0148
in methanol, 299.91 K	0.0234
in methanol, 304.45 K	0.0251
in methanol, 307.85 K	0.0264
in methanol, 311.9 K	0.028
in methanol, 315.95 K	0.0293
in methanol, 319.63 K	0.0304
in methanol, 323.65 K	0.032
in methanol, 326.25 K	0.0335
in methanol, 330.85 K	0.0353
in water, 303.21 K	0.098
in water, 307.4 K	0.0959
in water, 312.18 K	0.0948
in water, 317.05 K	0.0931
in water, 321.86 K	0.0914
in water, 326.15 K	0.0894
in water, 330.45 K	0.0891
in water, 335.42 K	0.0895
in water, 340.35 K	0.0914
